Source: article PMC4327562, “Emergence of terpene cyclization in Artemisia annua” (Nature Communications, 2015)

What was measured:
[1] = molecular target: T1, (E)-β-farnesene synthase (BFS), A. annua BFS (Artemisia annua, UniProt Q9FXY7, Y305L/Y433A, form not given); conditions: 5 mM MgCl2, pH 7.0, 30 °C, inorganic pyrophosphatase coupled
T1 construct: gene CASC125
Source text: (§1) malachite green assay, steady-state kinetics on (E)-β-farnesene synthase (BFS), A. annua BFS

[2] = molecular target: T2, (E)-β-farnesene synthase (BFS), A. annua BFS (Artemisia annua, UniProt Q9FXY7); conditions: 5 mM MgCl2, pH 7.0, 30 °C, inorganic pyrophosphatase coupled
T2 construct: gene CASC125
Source text: as §1

[3] = molecular target: T3, (E)-β-farnesene synthase (BFS), A. annua BFS (Artemisia annua, UniProt Q9FXY7, Y423L/V470G, form not given); conditions: 5 mM MgCl2, pH 7.0, 30 °C, inorganic pyrophosphatase coupled
T3 construct: gene CASC125
Source text: as §1

[4] = molecular target: T4, (E)-β-farnesene synthase (BFS), A. annua BFS (Artemisia annua, UniProt Q9FXY7, Y433A/V470G, form not given); conditions: 5 mM MgCl2, pH 7.0, 30 °C, inorganic pyrophosphatase coupled
T4 construct: gene CASC125
Source text: as §1

[5] = molecular target: T5, amorpha-4,11-diene synthase (ADS) (Artemisia annua, UniProt Q9AR04); assay: GC-MS product analysis and malachite green assay; type: biochemical; conditions: 5 mM MgCl2, pH 7.0; numbering likely that of A. annua BFS
T5 construct: gene AMS1; recombinant
T5 sequence (Q9AR04 whole entry): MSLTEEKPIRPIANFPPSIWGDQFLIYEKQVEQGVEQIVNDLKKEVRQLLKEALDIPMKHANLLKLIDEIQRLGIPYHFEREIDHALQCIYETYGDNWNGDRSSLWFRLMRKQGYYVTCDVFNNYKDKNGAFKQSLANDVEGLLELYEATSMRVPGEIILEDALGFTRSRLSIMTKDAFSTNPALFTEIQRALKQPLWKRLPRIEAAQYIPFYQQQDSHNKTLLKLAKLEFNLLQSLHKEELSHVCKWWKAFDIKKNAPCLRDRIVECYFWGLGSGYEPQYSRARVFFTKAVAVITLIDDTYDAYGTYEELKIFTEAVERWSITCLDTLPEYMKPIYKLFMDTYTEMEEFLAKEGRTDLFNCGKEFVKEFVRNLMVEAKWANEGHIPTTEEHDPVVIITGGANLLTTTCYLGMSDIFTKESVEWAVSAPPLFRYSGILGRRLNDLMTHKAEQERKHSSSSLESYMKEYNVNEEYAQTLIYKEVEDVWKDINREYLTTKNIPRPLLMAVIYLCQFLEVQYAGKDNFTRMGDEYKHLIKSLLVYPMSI

T4 sequence (Q9FXY7 whole entry Y433A/V470G, form open): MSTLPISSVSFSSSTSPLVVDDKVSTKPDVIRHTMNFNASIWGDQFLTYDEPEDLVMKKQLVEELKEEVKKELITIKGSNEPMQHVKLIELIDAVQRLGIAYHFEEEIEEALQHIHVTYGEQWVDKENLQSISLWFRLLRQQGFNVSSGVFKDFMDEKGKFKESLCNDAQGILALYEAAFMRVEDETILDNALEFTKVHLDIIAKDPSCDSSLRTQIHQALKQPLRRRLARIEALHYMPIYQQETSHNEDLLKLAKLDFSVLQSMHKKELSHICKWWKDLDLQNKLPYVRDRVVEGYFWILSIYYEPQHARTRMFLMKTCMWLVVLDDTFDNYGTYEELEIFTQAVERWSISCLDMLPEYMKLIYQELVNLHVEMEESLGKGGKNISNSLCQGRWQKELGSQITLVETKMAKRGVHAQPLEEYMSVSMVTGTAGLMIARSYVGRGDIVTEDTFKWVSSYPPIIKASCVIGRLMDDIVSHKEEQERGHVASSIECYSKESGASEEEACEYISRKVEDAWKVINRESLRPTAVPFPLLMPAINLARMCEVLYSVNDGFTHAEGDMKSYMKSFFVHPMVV
T3 sequence (Q9FXY7 whole entry Y423L/V470G, form open): as the sequence (Q9FXY7 whole entry Y433A/V470G, form open) above, with Y423L, A433Y counted along it
T1 sequence (Q9FXY7 whole entry Y305L/Y433A, form open): as the sequence (Q9FXY7 whole entry Y433A/V470G, form open) above, with Y305L, G470V counted along it
T2 sequence (Q9FXY7 whole entry): as the sequence (Q9FXY7 whole entry Y433A/V470G, form open) above, with A433Y, G470V counted along it

Row | Km [1] | Km [2] | Km [3] | Km [4] | SMILES | GC-MS product analysis and malachite green assay [5]
1 | 5.22 µM | 10.6 µM | 5.99 µM | 4.27 µM | CC(C)=CCC/C(C)=C/CC/C(C)=C/CO[P@@](=O)(O)OP(=O)(O)O (stereo in doubt) [FPP, farnesyl pyrophosphate] | 
2 |  |  |  |  | CC(C)=CCC/C(C)=C/CC/C(C)=C/COP(=O)(O)OP(=O)(O)O [FPP, farnesyl pyrophosphate] | incorporating the L402Y mutation into ADS induced a broadening of cyclization products
